Test results: patent publication US20090068286A1, “METHOD OF TREATING CANCER BY ADMINISTRATION OF 5-SUBSTITUTED NUCLEOSIDES” (RESprotect, GmbH, priority 2007, published 2009)
“And” between values parts separate entries of the source, which are not always exact repeats. Equal entries are not always repeated. Where two headings read alike, the source gives them in different places.

Assay: Plasma concentrations of BVDU, BVU and GEM in patients of the dose finding study (HPLC)
Format: in vivo, human
Details: for concentration at 0 hr / concentration at 0 h / concentration at 0.5 hr / concentration at 1 hr / concentration at 1.5 hr / concentration at 2 hr / concentration at 3 hr / concentration at 4 hr / concentration at 4 h / concentration at 5 hr / concentration at 9 hr / concentration at 0.5 h / concentration at 1 h / concentration at 1.5 h / concentration at 2 h / concentration at 3 h / concentration at 5 h / concentration at 9 h: human, plasma, po; for concentration at 0 hr / concentration at 0 h / concentration at 0.5 hr / concentration at 1 hr / concentration at 1.5 hr / concentration at 2 hr / concentration at 3 hr / concentration at 4 hr / concentration at 4 h / concentration at 5 hr / concentration at 9 hr / concentration at 0.5 h / concentration at 1 h / concentration at 1.5 h / concentration at 2 h / concentration at 3 h / concentration at 5 h / concentration at 9 h / BVDU plasma concentration, patient: day 1, oral BVDU
Method: Dose finding study: 22 Patients with advanced pancreatic adenocarcinoma were eligible for treatment in this single arm study. The mean age was 60 years and 73% of patients were males. One patient without progressive disease was excluded from the study for withdrawal of consent after the first cycle. Of the 21 patients left, 15 were in stage IV and 6 in stage III. BVDU was administered in a combination with GEM. On day 1, on day 8 and on day 15 of each 28-day cycle, BVDU was given together with GEM. On days 2-4, on days 8-11, and on days 15-18 of a 28-day cycle, BVDU was given alone in the recovery phase.
The starting dose of BVDU was 4×125 mg/day (total dose of 6,000 mg per treatment cycle) together with a fixed dose of GEM (1,000 mg/M^2). Subsequent total doses of BVDU per cycle were 7,500 mg, 9,000 mg, 10,500 mg, and 12,000 mg again in four patients per cohort. Dosage levels were administered as follows: First dose level: The starting dose of BVDU was 4×125 mg daily given at approximately 08:00 a.m. (1×125 mg BVDU), 12:00 a.m. (1×125 mg BVDU), 04:00 p.m. (1×125 mg BVDU), and 08:00 p.m. (1×125 mg BVDU). These doses were administered on days 1 to 4, days 8 to 11 and days 15 to 18; Second dose level: 1×250 mg+3×125 mg daily; Third dose level. 2×250 mg+2×125 mg daily; Forth dose level: 3×250 mg+1×125 mg daily; and, Fifth dose level: 4×250 mg daily.
Approximately 1 hour after the 08:00 a.m. BVDU-administration on day 1, day 8 and day 15 of a cycle, the GEM infusion started and GEM was infused for 30 minutes.
Analysis of the concentrations of GEM and BVDU (BVDU) as well as analysis of the concentrations of BVU ((E)-5-(2-bromovinyl)uracil, degradation product of BVDU) in plasma samples: 0.5 ml of plasma spiked with about 0.5 μg of 4-Propyl-2-thiouracil (PTU) as internal standard was extracted with 2.5 ml of methanol-acetonitrile (v/v, 1:9) by vigorous mixing for about 1 min. After centrifugation the supernatant was transferred to a beaker and evaporated to dryness at 50° C. under a gentle stream of nitrogen. The residue was dissolved in 1 ml of the solution used as mobile phase by 10 min treatment in an ultrasonic bath. After centrifugation the clear supernatant was used for HPLC-analysis. The concentrations of GEM and BVDU were calculated using a calibration curve with the respective standard substances. The concentrations of BVU were calculated using the calibration curve of BVDU and the determined response factor. Limits of detection: BVDU 20 ng/ml plasma; GEM 30 ng/ml plasma. Limits of quantification: BVDU 60 ng/ml plasma; GEM 100 ng/ml plasma.
Pharmacokinetic Results BVDU: All measurements were performed within 9 hours. Therefore, only the first three intakes of BVDU-tablets were relevant in this context, and as consequence, in dose groups four and five the intake of tablets was identical. When the dose was doubled from 125 mg to 250 mg, the mean maximum BVDU concentration in plasma increased fivefold from 290 (±152) ng/ml to 1549 (±1058) ng/ml (FIG. 10).

[1] = both sexes, dose level 6000 mg, read-out: BVDU plasma concentration, Mean
[2] = both sexes, dose level 6000 mg, read-out: BVDU plasma concentration, Median
[3] = both sexes, dose level 7500 mg, read-out: BVDU plasma concentration, Mean
[4] = both sexes, dose level 10500 mg, read-out: BVDU plasma concentration, Mean
[5] = both sexes, dose level 10500 mg, read-out: BVDU plasma concentration, Median
[6] = both sexes, dose level 12000 mg, read-out: BVDU plasma concentration, Mean
[7] = both sexes, dose level 12000 mg, read-out: BVDU plasma concentration, Median
[8] = dose level 7500 mg, read-out: BVDU plasma concentration, Median
[9] = dose level 9000 mg, read-out: BVDU plasma concentration, Mean
[10] = dose level 9000 mg, read-out: BVDU plasma concentration, Median

SMILES: O=c1[nH]c(=O)n([C@H]2C[C@H](O)[C@@H](CO)O2)cc1/C=C/Br [BVDU, (E)-5-(2-bromovinyl)-2′-deoxyuridine]
- Mean maximum BVDU concentration in plasma (BVDU dose 125 mg): 290 (±152) ng/ml
- Mean maximum BVDU concentration in plasma (BVDU dose 250 mg): 1549 (±1058) ng/ml
- concentration at 0 hr [1]: 0 ng/mL
- concentration at 0 hr [2]: 0 ng/mL
- concentration at 0 h (both sexes, dose level 6000 mg, read-out: BVDU plasma concentration, patient): 0 ng/mL
- concentration at 0.5 hr [1]: 213 ng/mL
- concentration at 0.5 hr [2]: 213 ng/mL
- concentration at 1 hr [1]: 177 ng/mL
- concentration at 1 hr [2]: 109 ng/mL
- concentration at 1.5 hr (both sexes, dose level 6000 mg, 1.5 hr, read-out: BVDU plasma concentration, Mean): 250 ng/mL
- concentration at 1.5 hr (both sexes, dose level 6000 mg, 1.5 hr, read-out: BVDU plasma concentration, Median): 226 ng/mL
- concentration at 2 hr [1]: 231 ng/mL
- concentration at 2 hr [2]: 207 ng/mL
- concentration at 3 hr [1]: 175 ng/mL
- concentration at 3 hr [2]: 133 ng/mL
- concentration at 4 hr (both sexes, dose level 6000 mg, 4.0 hr, read-out: BVDU plasma concentration, Mean): 113 ng/mL
- concentration at 4 hr (both sexes, dose level 6000 mg, 4.0 hr, read-out: BVDU plasma concentration, Median): 122 ng/mL
- concentration at 4 h (both sexes, dose level 6000 mg, 4.0 hr, read-out: BVDU plasma concentration, patient): 126 ng/mL
- concentration at 5 hr [1]: 300 ng/mL
- concentration at 5 hr [2]: 334 ng/mL
- concentration at 9 hr [1]: 391 ng/mL
- concentration at 9 hr [2]: 403 ng/mL
- concentration at 0 hr [3]: 0 ng/mL
- concentration at 0 hr (both sexes, dose level 7500 mg, read-out: BVDU plasma concentration, patient): 0 ng/mL
- concentration at 0.5 hr [3]: 1600 ng/mL
- concentration at 1 hr [3]: 872 ng/mL
- concentration at 1.5 hr (both sexes, dose level 7500 mg, 1.5 hr, read-out: BVDU plasma concentration, Mean): 555 ng/mL
- concentration at 2 hr [3]: 454 ng/mL
- concentration at 3 hr [3]: 302 ng/mL
- concentration at 4 hr (both sexes, dose level 7500 mg, 4.0 hr, read-out: BVDU plasma concentration, Mean): 243 ng/mL
- concentration at 9 hr [3]: 952 ng/mL
- concentration at 0 h [4]: 0 ng/mL
- concentration at 0 h [5]: 0 ng/mL
- concentration at 0 h (both sexes, dose level 10500 mg, read-out: BVDU plasma concentration, patient): 0 ng/mL
- concentration at 0.5 h [4]: 1110 ng/mL
- concentration at 0.5 h [5]: 1150 ng/mL
- concentration at 1 h [4]: 1010 ng/mL
- concentration at 1 h [5]: 1010 ng/mL
- concentration at 1.5 h (both sexes, dose level 10500 mg, 1.5 hr, read-out: BVDU plasma concentration, Mean): 636 ng/mL
- concentration at 1.5 h (both sexes, dose level 10500 mg, 1.5 hr, read-out: BVDU plasma concentration, Median): 566 ng/mL
- concentration at 2 h [4]: 697 ng/mL
- concentration at 2 h [5]: 669 ng/mL
- concentration at 3 h [4]: 453 ng/mL
- concentration at 3 h [5]: 279 ng/mL
- concentration at 4 h (both sexes, dose level 10500 mg, 4.0 hr, read-out: BVDU plasma concentration, Mean): 206 ng/mL
- concentration at 4 h (both sexes, dose level 10500 mg, 4.0 hr, read-out: BVDU plasma concentration, Median): 212 ng/mL
- concentration at 5 h [4]: 400 ng/mL
- concentration at 5 h [5]: 410 ng/mL
- concentration at 9 h [4]: 2070 ng/mL
- concentration at 9 h [5]: 1390 ng/mL
- concentration at 0 h [6]: 0 ng/mL
- concentration at 0 h [7]: 0 ng/mL
- concentration at 0 h (both sexes, dose level 12000 mg, read-out: BVDU plasma concentration, patient): 0 ng/mL
- concentration at 0.5 h [6]: 1490 ng/mL
- concentration at 0.5 h [7]: 672 ng/mL
- concentration at 1 h [6]: 1160 ng/mL
- concentration at 1 h [7]: 1020 ng/mL
- concentration at 1.5 h (both sexes, dose level 12000 mg, 1.5 hr, read-out: BVDU plasma concentration, Mean): 1050 ng/mL
- concentration at 1.5 h (both sexes, dose level 12000 mg, 1.5 hr, read-out: BVDU plasma concentration, Median): 844 ng/mL
- concentration at 1.5 h (both sexes, dose level 12000 mg, 1.5 hr, read-out: BVDU plasma concentration, patient): 844 ng/mL
- concentration at 2 h [6]: 904 ng/mL
- concentration at 2 h [7]: 561 ng/mL
- concentration at 3 h [6]: 738 ng/mL
- concentration at 3 h [7]: 407 ng/mL
- concentration at 4 h (both sexes, dose level 12000 mg, 4.0 hr, read-out: BVDU plasma concentration, Mean): 543 ng/mL
- concentration at 4 h (both sexes, dose level 12000 mg, 4.0 hr, read-out: BVDU plasma concentration, Median): 440 ng/mL
- concentration at 5 h [6]: 2080 ng/mL
- concentration at 5 h [7]: 1070 ng/mL
- concentration at 9 h [6]: 2340 ng/mL
- concentration at 9 h [7]: 1780 ng/mL
- Increase of mean maximum BVDU concentration in plasma (dose doubled from 125 mg to 250 mg): fivefold
- BVDU plasma concentration, patient (dose level 6000 mg, 4.0 hr): 122 ng/mL and 90 ng/mL
- BVDU plasma concentration, patient (dose level 12000 mg, 1.5 hr): 1524 ng/mL and 792 ng/mL
- concentration at 0 h [8]: 0 ng/mL
- concentration at 0.5 h [8]: 1130 ng/mL
- concentration at 1 h [8]: 484 ng/mL
- concentration at 1.5 h (dose level 7500 mg, 1.5 hr, read-out: BVDU plasma concentration, Median): 644 ng/mL
- concentration at 2 h [8]: 403 ng/mL
- concentration at 3 h [8]: 304 ng/mL
- concentration at 4 h (dose level 7500 mg, 4.0 hr, read-out: BVDU plasma concentration, Median): 242 ng/mL
- concentration at 5 h (dose level 7500 mg, read-out: BVDU plasma concentration, Mean): 641 ng/mL
- concentration at 5 h [8]: 776 ng/mL
- concentration at 9 h [8]: 898 ng/mL
- concentration at 0 h [9]: 0 ng/mL
- concentration at 0 h [10]: 0 ng/mL
- concentration at 0 h (dose level 9000 mg, read-out: BVDU plasma concentration, patient): 0 ng/mL
- concentration at 0.5 h [9]: 942 ng/mL
- concentration at 0.5 h [10]: 979 ng/mL
- concentration at 1 h [9]: 784 ng/mL
- concentration at 1 h [10]: 781 ng/mL
- concentration at 1.5 h (dose level 9000 mg, 1.5 hr, read-out: BVDU plasma concentration, Mean): 697 ng/mL
- concentration at 1.5 h (dose level 9000 mg, 1.5 hr, read-out: BVDU plasma concentration, Median): 530 ng/mL
- concentration at 2 h [9]: 701 ng/mL
- concentration at 2 h [10]: 705 ng/mL
- concentration at 3 h [9]: 464 ng/mL
- concentration at 3 h [10]: 441 ng/mL
- concentration at 4 h (dose level 9000 mg, 4.0 hr, read-out: BVDU plasma concentration, Mean): 420 ng/mL
- concentration at 4 h (dose level 9000 mg, 4.0 hr, read-out: BVDU plasma concentration, Median): 378 ng/mL
- concentration at 5 h [9]: 1300 ng/mL
- concentration at 5 h [10]: 1020 ng/mL
- concentration at 9 h [9]: 1510 ng/mL
- concentration at 9 h [10]: 1630 ng/mL
